Measurements published in patent publication US5474988A, “5-phenylpyrrolo-1,4-benzoxazine and 5-phenylpyrrolo-1,4-benzothiazine compounds, process and intermediates for their production and pharmaceutical compositions containing them” (Kali-Chemie Pharma GmbH, priority 1993, dated 1995).

Experiments:
male mice = conditions: mouse, in vivo, po, 1440 min
Method: 2. Determination of the minimum toxic dose.
Maximum doses of 300 mg/kg of the test substance were administered orally to male mice each weighing 20-25 g. The animals were carefully observed for symptoms of toxicity for 3 hours. All symptoms and deaths were additionally recorded over a period of 24 hours after administration. Associated symptoms were likewise observed and recorded. If death or severely toxic symptoms were observed, increasingly lower doses were administered to further mice. The lowest dose which caused death or severely toxic symptoms is indicated as the minimum toxic dose in the following Table B: […]

[1] = system: P.A.F.-induced aggregation of blood platelets; assay: anti-P.A.F. action in vitro (P.A.F.-induced platelet aggregation); format: cell-based; conditions: Oryctolagus cuniculus, 10^-5 mole/liter, read-out: Anti-P.A.F. activity in vitro, % inhibition of the P.A.F.-induced aggregation of blood platelets from rabbit blood
From the text: 3. Determination of the anti-P.A.F. action in vitro.
P.A.F. (=Platelet Activating Factor=Platelet Aggregation Factor) is a phospholipid mediator which has a multiplicity of actions. The activation of blood platelet aggregation results in the induction of long-lasting bronchoconstrictions and hyperreactivity of the respiratory passages.
In this test, the effect of the test substances on platelet aggregation induced by addition of P.A.F. in a platelet suspension obtained from rabbit blood was investigated according to the method described by Mikashima et al. (Jap. J. Pharmacol. 44 (1987) 387-391).
A suspension of platelets obtained from rabbit blood was used which contains 4×10^9 platelets/ml in a modified Tyrode buffer solution (=Tyrode solution with the addition of 1.3 mM/l of CaCl2 and 2.5 g/l of gelatine) adjusted to pH 7.4. Tyrode solution is an aqueous solution containing, per liter, 136.9 mmole of NaCl, 2.68 mmole of KCl, 2.31 mmole of CaCl2, 1.0 mmole of MgCl2, 11.9 mmole of NaHCO3, 1.45 mmole of NaH2 PO4 and 5.55 mmole of glucose. The platelets were concentrated from 10 ml blood samples of three rabbits (New Zealand hybrids, body weight 3-4 kg) in each case. To accomplish this, the blood samples were treated with ethylenediaminetetraacetic acid and washed according to the method of Artley et al. (Brit. J. Haematol. 19 (1970), 7-17). A platelet-rich plasma was first separated by centrifugation (20 minutes at 400×g). The platelets were separated from the plasma by repeated centrifugation for 15 minutes at 1400×g.After the centrifugation, the blood platelets remaining in the sediment were resuspended in a Tyrode buffer solution (but without calcium). 0.4 mmole of lysine acetylsalicylate was then added, and the blood platelets were sedimented again after 15 minutes. The sediment was resuspended in the aforementioned modified Tyrode buffer solution, and the number of platelets in the suspension obtained was adjusted to the desired content.
A 40×10^-9 molar P.A.F. solution was employed as a reagent. This solution was prepared from a 1.8×10^-3 molar stock solution in chloroform. To do this, a 10 μl sample of the stock solution was evaporated to dryness and dissolved again in 180 μl of the modified Tyrode buffer solution, to which 0.25% of lipid-free bovine serum albumin had been added. 10^-5 molar working solutions were then prepared from this and stored frozen. Samples of these solutions were appropriately diluted for tests.
In order to carry out the test, 50 μl of the blood platelet suspension and 10 μl of a 40×10^-5 molar solution of the compound to be investigated were added to […] of the modified Tyrode buffer solution with stirring (1000 rpm) in an aggregation tube provided with a small magnetic stirrer. This corresponded to a final test substance concentration of 10^-5 mole/l. After a preincubation time of 90 seconds, 10 μl of the P.A.F. preparation were added. For 4-5 minutes, the aggregation occurring in the aggregation tube was measured by means of a computerized aggregometer.
The aggregation occurring in the test tubes containing only the platelet suspension is rated as 0%. The aggregation occurring in the test tubes containing platelet suspension and P.A.F. preparation, in which a P.A.F.-induced increase in platelet aggregation takes place, is rated as 100%. The aggregation still occurring after addition of the test substances is measured, and from this the inhibition of the P.A.F.-inducedincrease in aggregation which takes place is calculated in %.

[2] = system: cutaneous histamine induced anaphylactoid reactions; assay: inhibition of the anaphylactoid cutaneous reaction induced by histamine; format: in vivo, Sprague-Dawley rats; conditions: Rattus norvegicus, po, 0.5 h; 2 × 10^-5 mole/kg p.o., one hour before histamine; assessed 30 minutes after provocation; read-out: Inhibitory action against cutaneous histamine induced anaphylactoid reactions in rats, % inhibition
Method: 1. Determination of the inhibition of the anaphylactoid cutaneous reaction induced by histamine.
The inhibition of the anaphylactoid cutaneous reaction induced by histamine was determined in Sprague-Dawley rats having body weights of 150-180 g.
In order to determine the histamine-induced anaphylactoid skin reaction, 50 μl of a physiological saline solution containing 0.8 mg/ml of histamine were injected into the animals intradermally on one flank. Immediately afterward, a solution of 26.4 mg/kg of a blue dye (Evan's Blue) was administered i.v. to the animals.
The test substances were dissolved in distilled water which contains 1% by volume of dimethylformamide and 1% by volume of Tween®20 (=polyoxyethylene(20) sorbitan monolaurate). One hour before the histamine injection, each animal received 2×10^-5 mol/kg of test substance, in each case administered orally in 0.5 ml of solution. A control group received only the solvent for comparison.
The histamine-induced anaphylactoid reactions which manifested themselves by edema formation, swelling and exudation of blue dye are assessed 30 minutes after provocation by the histamine injection. This is carried out by visual determination of the extent of the exudation of blue dye at the sites of edema formation. With the aid of comparison scales, the percentage inhibition of the anaphylactoid reactions produced by the test substances is determined in comparison with the reactions of the control animals not treated with test substance.
The results obtained with compounds of the formula I by the above test method are reproduced in the following table A. The example numbers given as identifiers for the compounds of formula I refer to the subsequent preparative examples.

5-lipoxygenase [3] = assay: inhibition of 5-lipoxygenase activity in polymorphonuclear rat leucocytes (LTB4 formation); format: cell-based; conditions: 10^-5 mol/l; 22° C.
From the text: 4. In vitro determination of 5-lipoxygenase inhibition. 4a. In vitro determination of inhibition of 5-lipoxygenase activity in polymorphonuclear rat leucocytes. Arachidonic acid contained in cell membranes is released after activiation of the polymorphonuclear leucocytes (=PMN). During the course of this, under the action of the enzyme 5-lipoxygenase (=5-LO) arachidonic acid metabolites are synthesized which can be converted to leucotriene B4 (=LTB4) by LTA4 hydrolase. LTB4 is a principal metabolite of the arachidonic acid metabolism taking place on activation of the enzyme 5-LO by the inflammatory stimulus in the cell membrane. In in vitro systems, this metabolite is secreted from PMNs. […] To accomplish this, the content of LTB4 in a culture medium of rat peritoneal PMNs was determined after stimulation by calcimycin (=calcium-ionophore A23187) such as described by […] et al., Can. J. Physiol. Pharmacol. 67 (1989), 17. A cell suspension containing peritoneal PMNs of male Sprague-Dawley rats (body weight 200 to 250 g) was obtained in a known manner as follows: 6 ml of a solution containing 27.9 g/l of sodium thioglycolate were injected i.p. into the animals in order to induce the PMN invasion due to this inflammatory stimulus. After 22 hours, the animals were sacrificed by means of lethal ether anaesthesia. 20 ml of a Hank's salt solution (=Hank's Balanced Salt Solution=HBSS), but without Ca^++ and Mg^++ ions and with 0.2% by weight of sodium citrate, were then injected into the abdominal cavity. The suspension of accumulated cells was removed from the abdominal cavity and the cells were separated by centrifugation (10 minutes at 400×g). The cells were purified by repeated centrifugation in the presence of Ficoll-Paque®, (=metrizoic acid preparation, […], manufacturer Pharmacia), then washed twice with HBSS containing Ca^++ and Mg^++ ions and resuspended in HBSS containing Ca^ ++ and Mg^++ ions and buffered with 10 mM HEPES (=hydroxyethylpiperazinoethanesulfonic acid). In order to carry out the tests, samples of 0.7 ml of the PMN suspension (=0.5×10^6 cells) in each case were incubated for 15 minutes at 22° C. in plastic tubes containing 10 μM of the test substance in dimethylformamide or, as a control experiment, only containing dimethylformamide. The LTB4 synthesis was initiated in the samples by addition of calcimycin (final concentration 5 μm), and the samples were incubated for 10 minutes at 22° C. Only solvent was added to blank control samples. After 10 minutes, the reaction was terminated by addition of 0.3 ml of cold methanol. The samples were kept for 1 hour at 4° C. and then centrifuged (5 minutes at 10,000×g). The supernatant liquid was investigated to determine its LTB4 content by means of reverse phase high-pressure liquid chromatography (=reverse phase HPLC). […] The LTB4 was identified by comparison with authentic standard solutions eluting at the same time and determined at a wavelength of 270 nm. The LTB4 contents are determined from comparison with calibrated standard solutions, and from this the inhibitory activity of the test substances was calculated in % inhibition of the LTB4 synthesis in comparison with the control samples containing no test substance.

5-lipoxygenase [4] = molecular target: T1, 5-lipoxygenase (Homo sapiens, UniProt P09917); assay: 5-lipoxygenase inhibition in human blood (LTB4 formation); format: cell-based; conditions: 0.5 h; 10^-5 mole/liter; human whole blood, 37° C.; read-out: In vitro % inhibitory activity on LTB4 formation in human blood stimulated by calcimycin
T1 construct: the 5-LO activity in human whole blood; from tissue; host or cells: heparinized human whole blood
T1 sequence (P09917 1-674): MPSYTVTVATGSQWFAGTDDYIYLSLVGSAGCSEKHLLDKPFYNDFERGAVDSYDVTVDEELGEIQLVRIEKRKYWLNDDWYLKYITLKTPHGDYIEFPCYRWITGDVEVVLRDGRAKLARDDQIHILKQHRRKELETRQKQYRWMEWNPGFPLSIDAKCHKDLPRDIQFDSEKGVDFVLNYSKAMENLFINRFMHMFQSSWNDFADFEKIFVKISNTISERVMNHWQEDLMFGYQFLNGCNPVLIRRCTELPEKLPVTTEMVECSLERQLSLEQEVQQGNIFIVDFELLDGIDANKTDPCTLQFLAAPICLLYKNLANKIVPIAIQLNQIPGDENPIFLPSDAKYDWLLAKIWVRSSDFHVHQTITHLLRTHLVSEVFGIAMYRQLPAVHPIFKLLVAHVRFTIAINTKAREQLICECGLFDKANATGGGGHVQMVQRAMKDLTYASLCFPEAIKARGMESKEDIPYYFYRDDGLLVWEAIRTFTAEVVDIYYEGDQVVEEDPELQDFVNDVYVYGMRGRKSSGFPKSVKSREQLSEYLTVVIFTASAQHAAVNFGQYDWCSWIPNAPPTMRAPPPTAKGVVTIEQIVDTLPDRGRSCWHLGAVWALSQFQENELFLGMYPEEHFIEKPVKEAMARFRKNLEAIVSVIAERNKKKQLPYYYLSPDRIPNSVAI
Method: 4c. In vitro determination of 5-lipoxygenase inhibition in human blood.
The inhibitory activity of the test substances on the 5-LO activity in human whole blood taking place after stimulation by calcimycin is investigated according to the method described by P. Gresele et al. (Biochem. Biophys. Commun. 137 (1986), 334).
For carrying out the test, human blood is collected in sterile 50 ml test tubes which contain 10 units of heparin/ml of blood and incubated for 5-10 minutes at 37° C. Amounts of test substance, dissolved in 10 μl of dimethylformamide, are added to 2 ml samples of this blood such that a final concentration of test substance of 10 μmol/l is achieved in the samples. Only 10 μl of the solvent were added to control samples. The samples were then incubated for 10 minutes at 37° C. In order to stimulate LTB4 synthesis, an amount of calcimycin, dissolved in 200 μl of plasma, was added to the samples such that a calcimycin concentration of 60 μmol/l was achieved, and the samples were incubated for a further 30 minutes at 37° C. The reaction was then terminated by addition of 200 μl of an ethylene glycol tetraacetate solution (corresponding to an ethylene glycol acetate concentration in the sample of 100 mmol/l). The samples are kept in an ice-bath for 10 minutes and then centrifuged (5 minutes at 1000×g). The supernantant liquids, which contain the LTB4 formed during the reaction time, are each separated and, for precipitation of the proteins contained therein, mixed with 3 ml of acetone and kept for 45 minutes at 4° C. Then the samples are centrifuged again (5 minutes at 1500×g), the supernatant liquids are separated, and the content of LTB4 therein is determined in a known manner by means of an enzyme immunoassay (=EIA). From the measured LTB4 values, the inhibitory activity of the test substances in human whole blood was calculated in % inhibition of LTB4 synthesis in comparison to the control samples containing no test substance.

| inhibition at 10 µM (5-lipoxygenase [4]) [%] | Structure (SMILES) | Minimum toxic dose (male mice) [mg/kg] | inhibition at 10 µM [1] [%] | inhibition in vivo at 20 µmol/kg [2] [%] | In vitro inhibitory activity on LTB4 formation in rat PMNs stimulated by calcium ionophore A23187 (5-lipoxygenase [3]) [%] |
| --- | --- | --- | --- | --- | --- |
| – | COc1ccc(-c2c(C)c3cccc4c3n2CC(CN2CCN(c3cc(C)ccn3)CC2)O4)cc1 (centres unmarked) [Example 5, 2,3-Dihydro-5-(4-methoxyphenyl)-6-methyl-2-[4-(4-methylpyridin-2-yl)piperazin-1-ylmethyl]pyrrolo[1,2,3-de]-1,4-benzoxazine] | > 300 | 100 | – | – |
| – | Cc1c(-c2ccc(O)cc2)n2c3c(cccc13)OC(CCN1CCN(c3ccccn3)CC1)C2 (centres unmarked) [Example 30] | – | 69 | 47 | 100 |
| – | Cc1ccc(N2CCN(CCC3Cn4c(-c5ccc(O)cc5)c(C)c5cccc(c54)O3)CC2)nc1 (centres unmarked) [Example 31] | – | 52 | 58 | 81 |
| – | Cc1cccnc1N1CCN(CCC2Cn3c(-c4ccc(O)cc4)c(C)c4cccc(c43)O2)CC1 (centres unmarked) [Example 32] | – | 79 | 57 | 98 |
| – | Cc1cccc(N2CCN(CCC3Cn4c(-c5ccc(O)cc5)c(C)c5cccc(c54)O3)CC2)n1 (centres unmarked) [Example 33] | – | 43 | 39 | 90 |
| 100 | Cc1cccnc1N1CCN(CCCC2Cn3c(-c4ccc(O)cc4)c(C)c4cccc(c43)O2)CC1 (centres unmarked) [Example 41] | – | – | 60 | 84 |
